{"source": "patent US9951372B2", "about": "“Compounds and methods for assaying redox state of metabolically active cells and methods for measuring NAD(P)/NAD(P)H” (PROMEGA CORPORATION, priority 2011, dated 2018)", "key": {"[1]": {"molecular_target": "T1, rat diaphorase (Rattus norvegicus, UniProt P05982)", "T1 construct": "purchased Sigma", "T1 sequence (P05982 2-274 limits assumed)": "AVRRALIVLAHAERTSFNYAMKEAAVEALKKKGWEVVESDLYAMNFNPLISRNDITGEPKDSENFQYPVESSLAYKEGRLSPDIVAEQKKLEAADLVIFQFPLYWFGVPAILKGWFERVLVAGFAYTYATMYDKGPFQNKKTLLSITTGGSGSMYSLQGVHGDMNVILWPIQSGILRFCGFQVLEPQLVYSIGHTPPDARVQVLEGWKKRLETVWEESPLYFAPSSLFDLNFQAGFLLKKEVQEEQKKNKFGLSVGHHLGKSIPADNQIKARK", "assay_type": "biochemical", "details": "for Fluorescence time course, Rat: 10 uM NADH"}, "[2]": {"test_system": "Clostridium diaphorase", "experiment": "Fluorescent NADH detection assay, Clostridium diaphorase", "assay_type": "biochemical", "details": "for FLUs: 1 u/ml Clostridium diaphorase; for Fluorescence time course, Clostridium: 10 uM NADH", "method": "Each fluorescent substrate (PBI-4412, 4413, 4440, and 4441) was incubated at 920 μM with 0 μM or 10 μM NADH (Sigma) or a titration of NADH (Table 8) and 1 u/ml rat diaphorase (Sigma) or 1 u/ml Clostridium diaphorase (Sigma) in a volume of 100 μl in 50 mM Tris pH 7.5. Single reactions were prepared in the wells of a 96-well black plate at room temperature. Fluorescence was monitored over the course of two hours at excitation and emission wavelengths of 485 and 527, respectively, using a fluorescence plate reader. […] Table 7 and FIGS. 24a-b show the reaction time course with each substrate with 10 uM NADH. Table 8 and FIG. 25 show the NADH titration at 60 minutes with PBI-4440 and 4412 with rat diaphorase."}, "[3]": {"test_system": "HeLa cells", "experiment": "Fluorescent imaging of live cells", "assay_type": "cell-based", "details": "10 μM substrate", "method": "HeLa cells were plated at 40,000 cell/well into wells of an 8-well chambered coverslip and incubated at 37° C.+5% CO2. The media (DMEM) was replaced with warm complete media (with 10% FBS) containing 10 μM PBI-4412, 4413, 4440 or 4441. Cells were then transferred to a confocal microscope for imaging using 10% λ488 nm laser power (4412, 4413, and 4441) or 5% laser power (4440). All images (FIGS. 6a-d) are at 30× magnification."}, "[4]": {"test_system": "HEK293 cells", "experiment": "Measuring metabolically active cells with quinone fluorescein derivatives", "assay_type": "cell-based", "details": "HEK293 cell dilutions; 60 minutes; 480ex/530em", "method": "i. Two-fold serial dilutions of HEK293 cells were prepared in full DMEM media, and 100 μl per well were transferred into wells of 96-well plates. Compounds PBI 4440 and 4412 were diluted in full DMEM media to make 20 μM and 10 μM stocks, respectively. 100 μl of the prepared compound stocks were added to the cells, and the cells were incubated for 60 minutes in a 37° C., 5% CO2 incubator. Following incubation, the cells were removed from incubator, and fluorescence measured with Tecan Infinite 500 at 480ex/Em530em wavelength."}}, "note": "Like-named read-outs stand apart in the source and are kept apart here."}
{"smiles": "CC1=CC(=O)C(C)=C(C(C)(C)CC(=O)N(C)CCN(C)C(=O)Oc2ccc3c(c2)Oc2cc(O)ccc2C32OC(=O)c3ccccc32)C1=O", "note": "(centres unmarked) [PBI 4412, Mono-quinone trimethyllock diamine fluorescein]", "values": [{"measurement": "FLUs", "setting": "[1]; 0 μM NADH, 60 min, 1 u/ml rat diaphorase", "value": 3772, "unit": "FLUs"}, {"measurement": "FLUs", "setting": "[1]; 10 μM NADH, 60 min, 1 u/ml rat diaphorase, substrate 920 μM", "value": 170571, "unit": "FLUs"}, {"measurement": "Fluorescence time course, Rat", "setting": "[1]; 2 min", "value": 10099, "unit": "FLUs"}, {"measurement": "Fluorescence time course, Rat", "setting": "[1]; 4 min", "value": 24171, "unit": "FLUs"}, {"measurement": "Fluorescence time course, Rat", "setting": "[1]; 5 min", "value": 33247, "unit": "FLUs"}, {"measurement": "Fluorescence time course, Rat", "setting": "[1]; 10 min", "value": 62502, "unit": "FLUs"}, {"measurement": "Fluorescence time course, Rat", "setting": "[1]; 20 min", "value": 106834, "unit": "FLUs"}, {"measurement": "Fluorescence time course, Rat", "setting": "[1]; 30 min", "value": 133278, "unit": "FLUs"}, {"measurement": "Fluorescence time course, Rat", "setting": "[1]; 40 min", "value": 151941, "unit": "FLUs"}, {"measurement": "Fluorescence time course, Rat", "setting": "[1]; 50 min", "value": 162636, "unit": "FLUs"}, {"measurement": "Fluorescence time course, Rat", "setting": "[1]; 60 min", "value": 170571, "unit": "FLUs"}, {"measurement": "Fluorescence time course, Rat", "setting": "[1]; 70 min", "value": 175380, "unit": "FLUs"}, {"measurement": "Fluorescence time course, Rat", "setting": "[1]; 80 min", "value": 177516, "unit": "FLUs"}, {"measurement": "Fluorescence time course, Rat", "setting": "[1]; 90 min", "value": 178423, "unit": "FLUs"}, {"measurement": "Fluorescence time course, Rat", "setting": "[1]; 100 min", "value": 180027, "unit": "FLUs"}, {"measurement": "Fluorescence time course, Rat", "setting": "[1]; 110 min", "value": 182051, "unit": "FLUs"}, {"measurement": "Fluorescence time course, Rat", "setting": "[1]; 120 min", "value": 181077, "unit": "FLUs"}, {"measurement": "FLUs", "setting": "[1]; NADH 0 μM, 60 minutes, rat diaphorase", "value": 3772, "unit": "FLUs"}, {"measurement": "FLUs", "setting": "[1]; NADH 1.25 μM, 60 minutes, rat diaphorase", "value": 26228, "unit": "FLUs"}, {"measurement": "FLUs", "setting": "[1]; NADH 2.5 μM, 60 minutes, rat diaphorase", "value": 51005, "unit": "FLUs"}, {"measurement": "FLUs", "setting": "[1]; NADH 5 μM, 60 minutes, rat diaphorase", "value": 97995, "unit": "FLUs"}, {"measurement": "FLUs", "setting": "[1]; NADH 10 μM, 60 minutes, rat diaphorase", "value": 170571, "unit": "FLUs"}, {"measurement": "FLUs", "setting": "[1]; NADH 20 μM, 60 minutes, rat diaphorase", "value": 183286, "unit": "FLUs"}, {"measurement": "FLUs", "setting": "[1]; NADH 40 μM, 60 minutes, rat diaphorase", "value": 185532, "unit": "FLUs"}, {"measurement": "FLUs", "setting": "[1]; NADH 80 μM, 60 minutes, rat diaphorase", "value": 183372, "unit": "FLUs"}, {"measurement": "FLUs", "setting": "[2]; 0 μM NADH, 60 min", "value": 3940, "unit": "FLUs"}, {"measurement": "FLUs", "setting": "[2]; 10 μM NADH, 60 min, substrate 920 μM", "value": 125352, "unit": "FLUs"}, {"measurement": "Fluorescence time course, Clostridium", "setting": "[2]; 2 min", "value": 9933, "unit": "FLUs"}, {"measurement": "Fluorescence time course, Clostridium", "setting": "[2]; 4 min", "value": 24883, "unit": "FLUs"}, {"measurement": "Fluorescence time course, Clostridium", "setting": "[2]; 5 min", "value": 33881, "unit": "FLUs"}, {"measurement": "Fluorescence time course, Clostridium", "setting": "[2]; 10 min", "value": 60458, "unit": "FLUs"}, {"measurement": "Fluorescence time course, Clostridium", "setting": "[2]; 20 min", "value": 95260, "unit": "FLUs"}, {"measurement": "Fluorescence time course, Clostridium", "setting": "[2]; 30 min", "value": 112465, "unit": "FLUs"}, {"measurement": "Fluorescence time course, Clostridium", "setting": "[2]; 40 min", "value": 120688, "unit": "FLUs"}, {"measurement": "Fluorescence time course, Clostridium", "setting": "[2]; 50 min", "value": 123934, "unit": "FLUs"}, {"measurement": "Fluorescence time course, Clostridium", "setting": "[2]; 60 min", "value": 125352, "unit": "FLUs"}, {"measurement": "Fluorescence time course, Clostridium", "setting": "[2]; 70 min", "value": 126364, "unit": "FLUs"}, {"measurement": "Fluorescence time course, Clostridium", "setting": "[2]; 80 min", "value": 125242, "unit": "FLUs"}, {"measurement": "Fluorescence time course, Clostridium", "setting": "[2]; 90 min", "value": 124786, "unit": "FLUs"}, {"measurement": "Fluorescence time course, Clostridium", "setting": "[2]; 100 min", "value": 124434, "unit": "FLUs"}, {"measurement": "Fluorescence time course, Clostridium", "setting": "[2]; 110 min", "value": 124460, "unit": "FLUs"}, {"measurement": "Fluorescence time course, Clostridium", "setting": "[2]; 120 min", "value": 124182, "unit": "FLUs"}, {"measurement": "reduction of substrate in live cells (confocal images)", "setting": "[3]", "value": "only reduced once inside cells"}, {"measurement": "relationship of fluorescence to cell number", "setting": "[4]", "value": "linear correlation between cell number and fluorescence"}]}
